Consider 26 molecules from patent US20180243317A1, “COMPOSITIONS COMPRISING A PI3K INHIBITOR AND AN HDAC INHIBITOR” (KARUS THERAPEUTICS LTD, priority 2015, published 2018).

pIC50: −log10 of the molar value. Bounds are passed on as bounds.

The target of one assay is T1, Human HDAC1 (Homo sapiens, UniProt Q13547).
T1 construct: full length with C-terminal His-tag and C-terminal FLAG-tag; His-tag (C); FLAG-tag (C); made in house; host or cells: baculovirus expression system
Description: HDAC biochemical assay with acetylated AMC-labeled peptide substrate. The conditions noted are these: read-out: IC50 HDAC 1. The procedure:
(§1) Activity against all zinc-dependent HDACs 1 to 11 was assessed by using an acetylated AMC-labeled peptide substrate. The substrate RHKKAc was used for all class I and IIb HDACs; for HDAC8, the substrate used was RHKAcKAc. […] All assays were based on the AMC-labeled substrate and developer combination.
(§2) The protocol involved a two-step reaction: first, the substrate with the acetylated lysine side chain is incubated with a sample containing HDAC activity, to produce the deacetylated products, which are then digested in the second step by the addition of developer to produce the fluorescent signal proportional to the amount of deacetylated substrates.
Human HDAC1 (GenBank Accession No. NM_004964), full length with C-terminal His-tag and C-terminal FLAG-tag, MW=56 kDa, expressed in baculovirus expression system.
(§3) Before use, 1 mg/mL BSA and DMSO are added.
(§4) Incubate for 2 hours at 30° C.
(§5) Fluorescence background signal is then subtracted from compound data signal.
(§6) Stage 1: Deacetylation of substrate by incubation of HDAC enzymes with compounds
(§7) Stage 2: Development by addition of Developer to digest the deacetylated substrate, and generate the fluorescent color; Detection: 360/460 Ex/Em

A further assay addresses T2, Recombinant human HDAC6 (Homo sapiens, UniProt Q9UBN7).
T2 construct: GST (N); made in house; host or cells: Sf9 insect cells (baculovirus)
T2 sequence (Q9UBN7 1-1215): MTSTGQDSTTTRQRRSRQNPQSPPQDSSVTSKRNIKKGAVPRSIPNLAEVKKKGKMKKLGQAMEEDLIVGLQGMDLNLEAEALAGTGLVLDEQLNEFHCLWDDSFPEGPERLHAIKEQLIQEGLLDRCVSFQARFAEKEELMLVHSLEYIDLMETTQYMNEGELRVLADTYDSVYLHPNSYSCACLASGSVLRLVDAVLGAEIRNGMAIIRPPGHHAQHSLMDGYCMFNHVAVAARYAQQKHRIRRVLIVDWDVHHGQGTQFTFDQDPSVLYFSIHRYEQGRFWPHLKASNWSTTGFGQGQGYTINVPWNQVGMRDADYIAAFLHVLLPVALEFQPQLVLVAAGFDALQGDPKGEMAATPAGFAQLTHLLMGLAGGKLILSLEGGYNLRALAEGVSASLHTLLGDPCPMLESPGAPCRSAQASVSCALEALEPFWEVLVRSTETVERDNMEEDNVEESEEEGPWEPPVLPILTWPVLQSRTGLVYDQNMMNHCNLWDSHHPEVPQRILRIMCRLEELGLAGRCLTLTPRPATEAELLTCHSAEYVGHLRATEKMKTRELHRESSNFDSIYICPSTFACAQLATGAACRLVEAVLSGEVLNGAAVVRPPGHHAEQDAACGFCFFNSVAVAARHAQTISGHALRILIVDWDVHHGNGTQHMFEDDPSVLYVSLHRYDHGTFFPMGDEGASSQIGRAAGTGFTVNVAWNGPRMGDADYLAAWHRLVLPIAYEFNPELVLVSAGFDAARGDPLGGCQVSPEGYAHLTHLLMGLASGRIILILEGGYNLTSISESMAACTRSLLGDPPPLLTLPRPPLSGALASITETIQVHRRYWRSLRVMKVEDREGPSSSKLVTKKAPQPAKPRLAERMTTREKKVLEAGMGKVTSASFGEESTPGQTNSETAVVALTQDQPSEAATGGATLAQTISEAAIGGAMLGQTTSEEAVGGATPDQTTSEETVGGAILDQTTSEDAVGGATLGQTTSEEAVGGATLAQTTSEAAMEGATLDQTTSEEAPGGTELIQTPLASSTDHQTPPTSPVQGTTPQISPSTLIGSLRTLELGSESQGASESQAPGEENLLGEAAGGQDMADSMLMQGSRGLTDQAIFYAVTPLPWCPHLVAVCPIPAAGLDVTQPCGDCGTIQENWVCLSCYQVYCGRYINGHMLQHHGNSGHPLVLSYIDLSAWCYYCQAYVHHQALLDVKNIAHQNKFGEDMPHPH
Described as above. Conditions: read-out: IC50 HDAC 6. The procedure: as §1, §2
Human HDAC5 (GenBank Accession No. NM_005474), full length with N-terminal GST tag, MW=150 kDa, expressed in baculovirus expression system. Recombinant human HDAC6 (GenBank Accession No. BC069243), full length, MW=180 kDa, was expressed by baculovirus in Sf9 insect cells using an N-terminal GST tag.
as §3, §4, §5, §6, §7

T1 sequence (Q13547 whole entry): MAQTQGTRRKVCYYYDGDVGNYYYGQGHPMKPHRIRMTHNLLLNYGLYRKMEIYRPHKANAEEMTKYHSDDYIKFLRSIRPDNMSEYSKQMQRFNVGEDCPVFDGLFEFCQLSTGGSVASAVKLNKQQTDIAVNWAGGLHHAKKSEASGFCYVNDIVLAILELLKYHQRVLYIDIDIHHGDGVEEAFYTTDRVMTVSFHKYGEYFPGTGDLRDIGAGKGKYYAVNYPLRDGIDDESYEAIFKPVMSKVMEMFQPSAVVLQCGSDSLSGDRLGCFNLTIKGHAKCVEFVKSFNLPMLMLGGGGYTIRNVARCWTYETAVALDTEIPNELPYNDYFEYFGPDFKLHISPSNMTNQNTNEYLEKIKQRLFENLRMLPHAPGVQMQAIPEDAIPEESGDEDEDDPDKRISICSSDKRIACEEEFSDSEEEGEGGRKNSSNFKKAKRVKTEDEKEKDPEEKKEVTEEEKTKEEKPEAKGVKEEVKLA

In the case of `O=C(NO)c1ccc(CN(c2ccccn2)c2nccc3sccc23)cc1` [Example BB, N-Hydroxy-4-((pyridin-2-yl(thieno[3,2-c]pyridin-4-yl)amino)methyl)benzamide], the pIC50 is 5.00 to 6.00 on Human HDAC1 and no less than 6.30 at Recombinant human HDAC6.
For the molecule `COc1cccnc1N(Cc1ccc(C(=O)NO)cc1)c1ccc(C)cn1` [Example X, N-Hydroxy-4-(((3-methoxypyridin-2-yl)-(5-methylpyridin-2-yl)amino)methyl)benzamide], the negative logarithm of the IC50 (pIC50) at Human HDAC1 was less than 5.00; at Recombinant human HDAC6, no less than 6.30.
For `O=C(NO)c1ccc(CN(c2ccncn2)c2cnccn2)cc1` [Example DD, N-Hydroxy-4-{[(pyrazin-2-yl)(pyrimidin-4-yl)amino]methyl}benzamide], the negative-log IC50 (pIC50) is 5.00 to 6.00 on Human HDAC1 and no less than 6.30 on Recombinant human HDAC6.
In the case of `O=C(NO)c1ccc(CN(c2ccc(F)cn2)c2cnccn2)cc1` [Example L, 4-(((5-Fluoropyridin-2-yl)(pyrazin-2-yl)amino)methyl)-N-hydroxybenzamide], the pIC50 was less than 5.00 on Human HDAC1 and no less than 6.30 at Recombinant human HDAC6.
For `COc1ccc(N(Cc2ccc(C(=O)NO)cc2)c2ccc(C)cn2)nc1` [Example Y, N-Hydroxy-4-(((5-methoxypyridin-2-yl)(5-methylpyridin-2-yl)amino)methyl)benzamide], the negative-log IC50 (pIC50) at Human HDAC1 is less than 5.00; at Recombinant human HDAC6, no less than 6.30.
The corresponding values for `O=C(NO)c1ccc(CN(c2cnccn2)c2cccnn2)cc1` [Example MM, N-Hydroxy-4-{[(pyrazin-2-yl)(pyridazin-3-yl)amino]methyl}benzamide] are less than 5.00 and no less than 6.30.
Consider `COc1cccnc1N(Cc1ccc(C(=O)NO)cc1F)c1cnccn1` [Example KK, 3-Fluoro-N-hydroxy-4-{[(3-methoxypyridin-2-yl)(pyrazin-2-yl)amino]methyl}benzamide], for which the pIC50 on Human HDAC1 was 5.00 to 6.00; at Recombinant human HDAC6, no less than 6.30.
In the case of `O=C(NO)c1ccc(CN(c2ccncn2)c2cnccn2)c(F)c1` [Example EE], the pIC50 was 5.00 to 6.00 on Human HDAC1 and no less than 6.30 at Recombinant human HDAC6.
For the molecule `O=C(NO)c1ccc(CN(c2cnccn2)c2cnccn2)c(F)c1` [Example HH, 4-{[Bis(pyrazin-2-yl)amino]methyl}-3-fluoro-N-hydroxybenzamide], the negative logarithm of the IC50 (pIC50) at Human HDAC1 is 5.00 to 6.00; at Recombinant human HDAC6, no less than 6.30.
As for `Cc1cccc(N(Cc2ccc(C(=O)NO)cc2)c2ccc(N3CCOCC3)cn2)n1` [Example CC, N-Hydroxy-4-(((6-methylpyridin-2-yl)(5-morpholinopyridin-2-yl)amino)methyl)benzamide], the pIC50 at Human HDAC1 was less than 5.00; at Recombinant human HDAC6 it was 6.00 to 6.30.
Consider `Cn1ccc(N(Cc2ccc(C(=O)NO)cc2)c2ccc(F)cn2)n1` [Example O, 4-(((5-Fluoropyridin-2-yl)(1-methyl-1H-pyrazol-3-yl)amino)methyl)-N-hydroxybenzamide], for which the pIC50 at Human HDAC1 is less than 5.00; at Recombinant human HDAC6, no less than 6.30.
On the same counts, the results for `O=C(NO)c1ccc(CN(c2ccncn2)c2cnccn2)nc1` [Example FF, N-Hydroxy-6-{[(pyrazin-2-yl)(pyrimidin-4-yl)amino]methyl}pyridine-3-carboxamide] are less than 5.00 and no less than 6.30.
As to `COc1ccc(N(Cc2ccc(C(=O)NO)cc2)c2ccc(N3CCOCC3)cn2)nc1` [Example AA, N-Hydroxy-4-(((5-methoxypyridin-2-yl)(5-morpholinopyridin-2-yl)amino)methyl)benzamide], the values for the pIC50 at Human HDAC1 and on Recombinant human HDAC6 were 5.00 to 6.00 and no less than 6.30, respectively.
Regarding `Cc1nsc(N(Cc2ccc(C(=O)NO)cc2)c2cnccn2)n1` [Example OO, N-Hydroxy-4-{[(3-methyl-1,2,4-thiadiazol-5-yl)(pyrazin-2-yl)amino]methyl}benzamide], the pIC50 at Human HDAC1 is 5.00 to 6.00; on Recombinant human HDAC6, no less than 6.30.
For the molecule `COc1cccnc1N(Cc1ccc(C(=O)NO)cn1)c1cnccn1` [Example LL, N-Hydroxy-6-{[(3-methoxypyridin-2-yl)(pyrazin-2-yl)amino]methyl}pyridine-3-carboxamide], the pIC50 on Human HDAC1 is less than 5.00; on Recombinant human HDAC6, no less than 6.30.
As to `Cc1noc(N(Cc2ccc(C(=O)NO)cc2)c2ccc(F)cn2)n1` [Example M, 4-(((5-Fluoropyridin-2-yl)(3-methyl-1,2,4-oxadiazol-5-yl)amino)methyl)-N-hydroxybenzamide], the figures for the pIC50 at Human HDAC1 and on Recombinant human HDAC6 were less than 5.00 and no less than 6.30, respectively.
With `O=C(NO)c1ccc(CN(c2cnccn2)c2cc(-c3ccc(F)cc3)ccn2)cc1` [Example U, 4-(((4-(4-Fluorophenyl)pyridin-2-yl)(pyrazin-2-yl)amino)methyl)-N-hydroxybenzamide], the values for the negative-log IC50 (pIC50) at Human HDAC1 and on Recombinant human HDAC6 were 5.00 to 6.00 and no less than 6.30, respectively.
`O=C(NO)c1ccc(CN(c2ccc(F)cn2)c2nc3ccccc3o2)cc1` [Example P, 4-((Benzo[d]oxazol-2-yl(5-fluoropyridin-2-yl)amino)methyl)-N-hydroxybenzamide]: the negative logarithm of the IC50 (pIC50) was less than 5.00 at Human HDAC1 and no less than 6.30 at Recombinant human HDAC6.
With `Cc1nsc(N(Cc2ccc(C(=O)NO)cc2)c2cc(-c3ccc(F)cc3)ccn2)n1` [Example S, 4-(((4-(4-Fluorophenyl)pyridin-2-yl)(3-methyl-1,2,4-thiadiazol-5-yl)amino)methyl)-N-hydroxybenzamide], the negative-log IC50 (pIC50) at Human HDAC1 was less than 5.00; on Recombinant human HDAC6 it was 5.00 to 6.00.
Consider `COc1ccnc(N(Cc2ccc(C(=O)NO)cc2)c2cnccn2)c1` [Example PP, N-Hydroxy-4-{[(4-methoxypyridin-2-yl)(pyrazin-2-yl)amino]methyl}benzamide], for which the results for the negative logarithm of the IC50 (pIC50) on Human HDAC1 and at Recombinant human HDAC6 were 5.00 to 6.00 and no less than 6.30, respectively.
In the case of `O=C(NO)c1ccc(CN(c2ccccn2)c2ncns2)cc1` [Example K, N-Hydroxy-4-((pyridin-2-yl(1,2,4-thiadiazol-5-yl)amino)methyl)benzamide], the pIC50 is less than 5.00 at Human HDAC1 and no less than 6.30 on Recombinant human HDAC6.
Take `O=C(NO)c1ccc(CN(c2ccccn2)c2nc3ccccc3s2)cc1` [Example V, 4-((Benzo[d]thiazol-2-yl(pyridin-2-yl)amino)methyl)-N-hydroxybenzamide]: the pIC50 on Recombinant human HDAC6 was no less than 6.30.
Regarding `Cn1c(N(Cc2ccc(C(=O)NO)cc2)c2ccc(F)cn2)nc2ccccc21` [Example N, 4-(((5-Fluoropyridin-2-yl)(1-methyl-1H-benzo[d]imidazol-2-yl)amino)methyl)-N-hydroxybenzamide], the results for the pIC50 on Human HDAC1 and on Recombinant human HDAC6 were less than 5.00 and no less than 6.30, respectively.
For the molecule `Cn1c(N(Cc2ccc(C(=O)NO)cc2)c2ccccn2)nc2ccccc21` [Example J, N-Hydroxy-4-(((1-methyl-1H-benzo[d]imidazol-2-yl)(pyridin-2-yl)amino)methyl)benzamide], the pIC50 was less than 5.00 at Human HDAC1 and no less than 6.30 on Recombinant human HDAC6.
With `Cc1nnc(N(Cc2ccc(C(=O)NO)cc2)c2ccccn2)s1` [Example H, N-Hydroxy-4-(((5-methyl-1,3,4-thiadiazol-2-yl)(pyridin-2-yl)amino)methyl)benzamide], the pIC50 on Human HDAC1 is less than 5.00; at Recombinant human HDAC6, no less than 6.30.
Turning to `O=C(NO)c1ccc(CN(c2cnccn2)c2cccnn2)c(F)c1` [Example NN, 3-Fluoro-N-hydroxy-4-{[(pyrazin-2-yl)(pyridazin-3-yl)amino]methyl}benzamide], the negative logarithm of the IC50 (pIC50) was less than 5.00 on Human HDAC1 and no less than 6.30 on Recombinant human HDAC6.

Usually pIC50 stands for −log10 of the IC50, conventionally taken in molar units.
